Results published in ChEMBL document CHEMBL2203015, “Synthesis and biological evaluation of 5-aryloxypyrazole derivatives bearing a rhodanine-3-aromatic acid as potential antimicrobial agents” (Bioorg Med Chem Lett, 2012).
≈ marks a conversion by molar mass, not a printed value.

Columns and labels:
Type in all cases: functional
Staphylococcus aureus [1] = test: Antibacterial activity against quinolone-resistant Staphylococcus aureus CCARM 3519 incubated for 24 hrs serial dilution method; conditions: CCARM 3519, 24 h
Staphylococcus aureus [2] = test: Antibacterial activity against quinolone-resistant Staphylococcus aureus CCARM 3505 incubated for 24 hrs serial dilution method; conditions: CCARM 3505, 24 h
Staphylococcus aureus [3] = test: Antibacterial activity against multidrug-resistant Staphylococcus aureus CCARM 3506 incubated for 24 hrs serial dilution method; conditions: CCARM 3506, 24 h
Staphylococcus aureus [4] = test: Antibacterial activity against multidrug-resistant Staphylococcus aureus CCARM 3167 incubated for 24 hrs serial dilution method; conditions: CCARM 3167, 24 h
Escherichia coli = test: Antibacterial activity against Escherichia coli 1356 incubated for 24 hrs serial dilution method; conditions: Escherichia coli, 1356, 24 h
Staphylococcus aureus [5] = test: Antibacterial activity against Staphylococcus aureus KCTC 503 incubated for 24 hrs serial dilution method; conditions: KCTC 503, 24 h
Staphylococcus aureus [6] = test: Antibacterial activity against Staphylococcus aureus KCTC 209 incubated for 24 hrs serial dilution method; conditions: KCTC 209, 24 h
Staphylococcus aureus [7] = test: Antibacterial activity against Staphylococcus aureus RN 4220 incubated for 24 hrs serial dilution method; conditions: RN 4220, 24 h

| SMILES | MIC (Staphylococcus aureus [1]) [mg/L] | MIC (Staphylococcus aureus [2]) [mg/L] | MIC (Staphylococcus aureus [3]) [mg/L] | MIC (Staphylococcus aureus [4]) [mg/L] | MIC (Escherichia coli) [mg/L] | MIC (Staphylococcus aureus [5]) [mg/L] | MIC (Staphylococcus aureus [6]) [mg/L] | MIC (Staphylococcus aureus [7]) [mg/L] |
| --- | --- | --- | --- | --- | --- | --- | --- | --- |
| Cc1ccc(Oc2c(/C=C3\SC(=S)N([C@@H](Cc4ccc(O)cc4)C(=O)O)C3=O)c(C)nn2-c2ccccc2)c(C)c1 | 8 (≈ 13.7 µM) | 8 (≈ 13.7 µM) | 8 (≈ 13.7 µM) | 8 (≈ 13.7 µM) | > 64 | > 64 | > 64 | 8 (≈ 13.7 µM) |
| Cc1nn(-c2ccccc2)c(Oc2ccc(F)cc2)c1/C=C1\SC(=S)N([C@@H](Cc2ccc(O)cc2)C(=O)O)C1=O | – | – | – | – | > 64 | > 64 | > 64 | > 32 |
| Cc1nn(-c2ccccc2)c(Oc2ccccc2)c1/C=C1\SC(=S)N([C@@H](Cc2ccc(O)cc2)C(=O)O)C1=O | – | – | – | – | > 64 | > 64 | > 64 | > 32 |
| Cc1onc(-c2ccccc2)c1C(=O)N[C@@H]1C(=O)N2[C@@H]1SC(C)(C)[C@@H]2C(=O)O [OXACILLIN] | 1 (≈ 2.49 µM) | 1 (≈ 2.49 µM) | > 64 | > 64 | > 64 | 1 (≈ 2.49 µM) | 1 (≈ 2.49 µM) | 1 (≈ 2.49 µM) |
| Cc1cccc(Oc2c(/C=C3\SC(=S)N([C@@H](Cc4ccc(O)cc4)C(=O)O)C3=O)c(C)nn2-c2ccccc2)c1 | 16 (≈ 28 µM) | 16 (≈ 28 µM) | 8 (≈ 14 µM) | 16 (≈ 28 µM) | > 64 | > 64 | > 64 | 16 (≈ 28 µM) |
| COc1ccccc1Oc1c(/C=C2\SC(=S)N([C@@H](Cc3ccc(O)cc3)C(=O)O)C2=O)c(C)nn1-c1ccccc1 | – | – | – | – | > 64 | > 64 | > 64 | > 32 |
| Cc1nn(-c2ccccc2)c(Oc2cccc(Cl)c2)c1/C=C1\SC(=S)N([C@@H](Cc2ccc(O)cc2)C(=O)O)C1=O | 16 (≈ 27 µM) | 32 (≈ 54 µM) | 16 (≈ 27 µM) | 8 (≈ 13.5 µM) | > 64 | > 64 | > 64 | 16 (≈ 27 µM) |
| COc1ccc(Oc2c(/C=C3\SC(=S)N([C@@H](Cc4ccc(O)cc4)C(=O)O)C3=O)c(C)nn2-c2ccccc2)cc1 | – | – | – | – | > 64 | > 64 | > 64 | > 32 |
| Cc1nn(-c2ccccc2)c(Oc2ccccc2Cl)c1/C=C1\SC(=S)N([C@@H](Cc2c[nH]c3ccccc23)C(=O)O)C1=O | 4 (≈ 6.5 µM) | 4 (≈ 6.5 µM) | 4 (≈ 6.5 µM) | 2 (≈ 3.25 µM) | > 64 | > 64 | > 64 | 4 (≈ 6.5 µM) |
| Cc1nn(-c2ccccc2)c(Oc2ccc(Cl)cc2Cl)c1/C=C1\SC(=S)N([C@@H](Cc2ccc(O)cc2)C(=O)O)C1=O | 8 (≈ 12.8 µM) | 8 (≈ 12.8 µM) | 8 (≈ 12.8 µM) | 8 (≈ 12.8 µM) | > 64 | > 64 | > 64 | 8 (≈ 12.8 µM) |
| Cc1nn(-c2ccccc2)c(Oc2ccc(F)cc2)c1/C=C1\SC(=S)N([C@@H](Cc2c[nH]c3ccccc23)C(=O)O)C1=O | 8 (≈ 13.4 µM) | 8 (≈ 13.4 µM) | 4 (≈ 6.68 µM) | 4 (≈ 6.68 µM) | > 64 | > 64 | > 64 | 8 (≈ 13.4 µM) |
| Cc1ccccc1Oc1c(/C=C2\SC(=S)N([C@@H](Cc3c[nH]c4ccccc34)C(=O)O)C2=O)c(C)nn1-c1ccccc1 | 8 (≈ 13.5 µM) | 8 (≈ 13.5 µM) | 4 (≈ 6.73 µM) | 2 (≈ 3.36 µM) | > 64 | > 64 | > 64 | 8 (≈ 13.5 µM) |
| Cc1nn(-c2ccccc2)c(Oc2c(Cl)cccc2Cl)c1/C=C1\SC(=S)N([C@@H](Cc2ccc(O)cc2)C(=O)O)C1=O | 16 (≈ 25.5 µM) | 16 (≈ 25.5 µM) | 8 (≈ 12.8 µM) | 8 (≈ 12.8 µM) | > 64 | > 64 | > 64 | 16 (≈ 25.5 µM) |
| Cc1nn(-c2ccccc2)c(Oc2cccc(C(F)(F)F)c2)c1/C=C1\SC(=S)N([C@@H](Cc2c[nH]c3ccccc23)C(=O)O)C1=O | 8 (≈ 12.3 µM) | 4 (≈ 6.17 µM) | 4 (≈ 6.17 µM) | 4 (≈ 6.17 µM) | > 64 | > 64 | > 64 | 4 (≈ 6.17 µM) |
| COc1ccccc1Oc1c(/C=C2\SC(=S)N([C@@H](Cc3c[nH]c4ccccc34)C(=O)O)C2=O)c(C)nn1-c1ccccc1 | 8 (≈ 13.1 µM) | 8 (≈ 13.1 µM) | 8 (≈ 13.1 µM) | 8 (≈ 13.1 µM) | > 64 | > 64 | > 64 | 16 (≈ 26.2 µM) |
| Cc1nn(-c2ccccc2)c(Oc2ccccc2Cl)c1/C=C1\SC(=S)N([C@@H](Cc2ccc(O)cc2)C(=O)O)C1=O | – | – | – | – | > 64 | > 64 | > 64 | > 32 |
| Cc1nn(-c2ccccc2)c(Oc2cccc(Cl)c2)c1/C=C1\SC(=S)N([C@@H](Cc2c[nH]c3ccccc23)C(=O)O)C1=O | 4 (≈ 6.5 µM) | 4 (≈ 6.5 µM) | 4 (≈ 6.5 µM) | 2 (≈ 3.25 µM) | > 64 | > 64 | > 64 | 4 (≈ 6.5 µM) |
| CCn1cc(C(=O)O)c(=O)c2cc(F)c(N3CCNCC3)cc21 [NORFLOXACIN] | > 64 | > 64 | 4 (≈ 12.5 µM) | 8 (≈ 25.1 µM) | > 16 | 2 (≈ 6.26 µM) | 2 (≈ 6.26 µM) | 2 (≈ 6.26 µM) |
| Cc1nn(-c2ccccc2)c(Oc2ccccc2)c1/C=C1\SC(=S)N([C@@H](Cc2c[nH]c3ccccc23)C(=O)O)C1=O | 8 (≈ 13.8 µM) | 8 (≈ 13.8 µM) | 8 (≈ 13.8 µM) | 8 (≈ 13.8 µM) | > 64 | > 64 | > 64 | 8 (≈ 13.8 µM) |
| Cc1nn(-c2ccccc2)c(Oc2c(Cl)cccc2Cl)c1/C=C1\SC(=S)N([C@@H](Cc2c[nH]c3ccccc23)C(=O)O)C1=O | 4 (≈ 6.16 µM) | 4 (≈ 6.16 µM) | 4 (≈ 6.16 µM) | 4 (≈ 6.16 µM) | > 64 | > 64 | > 64 | 4 (≈ 6.16 µM) |
| Cc1ccc(Oc2c(/C=C3\SC(=S)N([C@@H](Cc4c[nH]c5ccccc45)C(=O)O)C3=O)c(C)nn2-c2ccccc2)cc1 | 4 (≈ 6.73 µM) | 4 (≈ 6.73 µM) | 2 (≈ 3.36 µM) | 2 (≈ 3.36 µM) | > 64 | > 64 | > 64 | 4 (≈ 6.73 µM) |
| COc1ccc(Oc2c(/C=C3\SC(=S)N([C@@H](Cc4c[nH]c5ccccc45)C(=O)O)C3=O)c(C)nn2-c2ccccc2)cc1 | 8 (≈ 13.1 µM) | 8 (≈ 13.1 µM) | 4 (≈ 6.55 µM) | 4 (≈ 6.55 µM) | > 64 | > 64 | > 64 | 8 (≈ 13.1 µM) |
| Cc1nn(-c2ccccc2)c(Oc2ccc(Cl)cc2)c1/C=C1\SC(=S)N([C@@H](Cc2ccc(O)cc2)C(=O)O)C1=O | 8 (≈ 13.5 µM) | 16 (≈ 27 µM) | 8 (≈ 13.5 µM) | 16 (≈ 27 µM) | > 64 | > 64 | > 64 | 16 (≈ 27 µM) |
| Cc1nn(-c2ccccc2)c(Oc2ccc(Br)cc2)c1/C=C1\SC(=S)N([C@@H](Cc2ccc(O)cc2)C(=O)O)C1=O | 8 (≈ 12.6 µM) | 8 (≈ 12.6 µM) | 8 (≈ 12.6 µM) | 8 (≈ 12.6 µM) | > 64 | > 64 | > 64 | 8 (≈ 12.6 µM) |
| Cc1nn(-c2ccccc2)c(Oc2ccc(Cl)cc2)c1/C=C1\SC(=S)N([C@@H](Cc2c[nH]c3ccccc23)C(=O)O)C1=O | 2 (≈ 3.25 µM) | 2 (≈ 3.25 µM) | 2 (≈ 3.25 µM) | 2 (≈ 3.25 µM) | > 64 | > 64 | > 64 | 2 (≈ 3.25 µM) |
